“And” between values parts separate entries of the source, which are not always exact repeats. Equal values may be shown once. Read-outs that look alike come from different tables or passages of the source.
Tests used:
CYP2A19 [1] = assay: in vitro; conditions: both, hybrid sow × Piétrain boar, pig
CYP2A19 [2] = test system: CYP2A19
CYP2D [3] = assay: in vitro; conditions: both, hybrid sow × Piétrain boar, pig
CYP2D [4] = test system: CYP2D
IPEC-J2 cells = conditions: cited from earlier work
CYP2D [5] = test system: CYP2D; remark: listed apart in the source
CYP2C [6] = test system: CYP2C
CYP3A [7] = test system: CYP3A
CYP3A [8] = test system: CYP3A; remark: listed apart in the source
CYP2C [9] = test system: CYP2C; remark: listed apart in the source
[10] = pig, in vivo; cited from earlier work
CYP2C [11] = assay: in vitro; conditions: both, hybrid sow × Piétrain boar, pig
CYP3A [12] = assay: in vitro; conditions: both, pig
[13] = both, hybrid sow × Piétrain boars, pig, in vivo
in vivo = conditions: both, hybrid sow × Piétrain boars, pig; for k el: Ke
[14] = both, hybrid sow × Piétrain boar, pig

In the case of O=c1ccc2ccccc2o1 [CM, coumarin, reference compound], the Km (CYP2A19 [1]) is reported as 0.91 µM and the Vmax (CYP2A19 [2]) is reported as 359 (4.1) pmol/mg protein/min.
For COc1ccc2c(c1)[C@]13CCCC[C@@H]1[C@H](C2)N(C)CC3 [DXM, Dextromethorphan, reference compound], the Km (CYP2D [3]) was 2 µM and the Vmax (CYP2D [4]) was 1971 (39.7) pmol/mg protein/min.
For CCCC[C@@H](C)[C@@H](OC(=O)C[C@@H](CC(=O)O)C(=O)O)[C@H](C[C@@H](C)C[C@H](O)CCCC[C@@H](O)C[C@H](O)[C@H](C)N)OC(=O)C[C@@H](CC(=O)O)C(=O)O [FB1, fumonisin B1], the Inhibition type (CYP2A19 [2]) was “Full mixed”, the Ki (CYP2A19 [2]) was 2.3 µM and the Residual activity (CYP2A19 [2]) was 22.8 (3.50) %. The α (CYP2A19 [2]) was 14.0 (4.30) and the “Inhibition (efficacy)” value (CYP2A19 [2]; microsomes) was 17%.
In the case of CC(=O)OC[C@]12C[C@H](OC(=O)CC(C)C)C(C)=C[C@H]1O[C@@H]1[C@H](O)[C@@H](OC(C)=O)[C@@]2(C)[C@]12CO2 [T-2, T-2 toxin], the “Formed metabolite OH-CZ” value (CYP2E) is reported as 25.3 ng/mL and 26.9 ng/mL, the OH-CZ formation rate (CYP2E) is reported as 272.688 pmol/min/mg protein and 289.933 pmol/min/mg protein and the “OH-CZ formation rate, PRE” value (CYP2E) is reported as 237.12 pmol/min/mg protein and 232.809 pmol/min/mg protein and 217.719 pmol/min/mg protein. The “OH-CZ, pre-incubation (ruwe data)” value (CYP2E) was 22 and 21.6 and 20.2, the “Residual CYP enzyme activity, CZ (CYP2E)” value (CYP2E) was 65.4% and 79.5% and the “Concentration significantly affecting epithelial integrity” value (IPEC-J2 cells) was 10 ng/mL and 21.43 nM. For the same compound, the DEX formation rate (CYP2D [5]) was 838.482 pmol/min/mg protein and 812.838 pmol/min/mg protein and 850.138 pmol/min/mg protein, the “DEX formation rate, PRE” value (CYP2D [5]) was 660.528 pmol/min/mg protein and 864.903 pmol/min/mg protein and 852.469 pmol/min/mg protein and the “DEX, pre-incubation (ruwe data)” value (CYP2D [5]) was 85 and 111.3 and 109.7. The “Formed metabolite DEX” value (CYP2D [5]) was 107.9 ng/mL and 104.6 ng/mL and 109.4 ng/mL, the “Residual CYP enzyme activity, DXM (CYP2D)” value (CYP2D [5]) was 94.2% and 99.1% and the “Formed metabolite OH-CM” value (CYP2A) was 6.5 ng/mL and 7.1 ng/mL and 6.9 ng/mL. For the same compound, the OH-CM formation rate (CYP2A) was 80.1776 pmol/min/mg protein and 87.5786 pmol/min/mg protein and 85.1116 pmol/min/mg protein, the “OH-CM formation rate, PRE” value (CYP2A) was 65.3756 pmol/min/mg protein and 55.5076 pmol/min/mg protein and 64.1421 pmol/min/mg protein and the “OH-CM, pre-incubation (ruwe data)” value (CYP2A) was 5.3 and 4.5 and 5.2. For the same compound, the “Residual CYP enzyme activity, CM (CYP2A)” value (CYP2A) was 72.5% and 99.1%, the “Formed metabolite OH-TB” value (CYP2C [6]) was 8.9 ng/mL and 12.9 ng/mL and 13.4 ng/mL and the OH-TB formation rate (CYP2C [6]) was 12.4325 pmol/min/mg protein and 18.0201 pmol/min/mg protein and 18.7185 pmol/min/mg protein. The “OH-TB formation rate, PRE” value (CYP2C [6]) was 12.0134 pmol/min/mg protein and 12.2928 pmol/min/mg protein, the “OH-TB, pre-incubation (ruwe data)” value (CYP2C [6]) was 8.6 and 8.8 and the “Residual CYP enzyme activity, TB (CYP2C)” value (CYP2C [6]) was 46.3% and 62.3%. The “Formed metabolite OH-MDZ” value (CYP3A [7]) was 163 ng/mL and 160.8 ng/mL and 268.8 ng/mL, the OH-MDZ formation rate (CYP3A [7]) was 953.858 pmol/min/mg protein and 940.984 pmol/min/mg protein and 1572.99 pmol/min/mg protein and the “OH-MDZ formation rate, PRE” value (CYP3A [7]) was 348.773 pmol/min/mg protein and 383.884 pmol/min/mg protein and 308.395 pmol/min/mg protein. The “OH-MDZ, pre-incubation (ruwe data)” value (CYP3A [7]) was 59.6 and 65.6 and 52.7, the Inhibition type (CYP3A [8]) was “Full non-competitive” and the Ki (CYP3A [8]) was 27 µM. For the same compound, the Inhibition type (CYP2C [9]) was “Full competitive”, the Ki (CYP2C [9]) was 14.8 µM and the Residual activity (CYP2C [9]) was 24.0 (1.38) %. For the same compound, the “Formed metabolite PAR” value (CYP1A) was 47.3 ng/mL and 46.6 ng/mL and 46.9 ng/mL, the PAR formation rate (CYP1A) was 625.827 pmol/min/mg protein and 616.565 pmol/min/mg protein and 620.535 pmol/min/mg protein and the “PAR formation rate, PRE” value (CYP1A) was 523.948 pmol/min/mg protein and 490.871 pmol/min/mg protein and 492.194 pmol/min/mg protein. For the same compound, the “PAR, pre-incubation (ruwe data)” value (CYP1A) was 39.6 and 37.1 and 37.2, the “Residual CYP enzyme activity, PH (CYP1A)” value (CYP1A) was 78.2% and 96.7% and the Mean elimination half-life [10] was 0.23 h. The “Parent toxin in plasma and liver” value [10] was “no parent toxin could be detected”.
In the case of CCCCNC(=O)NS(=O)(=O)c1ccc(C)cc1 [TB, tolbutamide, reference compound], the Km (CYP2C [11]; Km) is reported as 1070 µM, the Vmax (CYP2C [9]) is reported as 160 (16.0) pmol/mg protein/min and 132 (17.9) pmol/mg protein/min and the Km (CYP2C [9]; [14]) is reported as 804 µM.
Compound C[C@H]1CCCC(=O)CCC/C=C/c2cc(O)cc(O)c2C(=O)O1 [ZEA, zearalenone] has a Ki (CYP2D [3]) of 55.4 µM, an activity (CYP2D [3]) of 32% and a Ki (CYP2C [11]) of 0.54 µM. For the same compound, the activity (CYP2C [11]; Residual activity) was less than 30%, the “DEX formation rate as % of [mycotoxine]=0” value (CYP2D [4]) was 37.1724 and the Inhibition type (CYP2D [4]) was “Full non-competitive”. The Inhibition type (CYP3A [8]) was “Partial mixed”, the α (CYP3A [8]) was 3.8 (1.43) and the β (CYP3A [8]) was 0.26 (0.064). The “mean OH-MDZ formation rate as % of [mycotoxine]=0” value (CYP3A [8]; both, hybrid sow × Piétrain boar cross, pig) was 26.7981, the Residual activity (CYP3A [8]; both, hybrid sow × Piétrain boars, pig, microsomes) was 27.0 (3.16) % and the Ki (CYP3A [12]; hybrid sow × Piétrain boars, microsomes) was 1.1 µM. The activity (CYP3A [12]; hybrid sow × Piétrain boars, microsomes, Residual activity) was less than 30%, the Inhibition type (CYP2C [9]) was “Partial competitive” and the α (CYP2C [9]) was 9.5 (1.05). For the same compound, the Residual activity (CYP2C [9]; [14]) was 18.7 (0.35) %.
In the case of Cc1ncc2n1-c1ccc(Cl)cc1C(c1ccccc1F)=NC2 [midazolam], the Cl ([13]; iv, 0.036 mg/kg) is reported as 45.5 (22.75) L/h, the “AUC (0-inf) in the ZEA group, times higher on average” value ([13]; po) is reported as “about 2.5 times” and the “Average Ka of the T-2 group, times higher compared to the control group” value ([13]; po) is reported as “about 2.5 times”. The AUC(0-inf) (in vivo; iv, 0.036 mg/kg) was 11.5 ng·h/mL, the clearance (in vivo; iv, 0.036 mg/kg, Cl) was 767 mL/min and the k el (in vivo; iv, 0.036 mg/kg) was 0.000231 s⁻¹. For the same compound, the MRT (in vivo; iv, 0.036 mg/kg) was 0.71 h, the Vd (in vivo; iv, 0.036 mg/kg, Vd) was 60.8 L and the AUC(0-inf) (in vivo; iv) was 18 ng·h/mL. For the same compound, the k el (in vivo; po, 0.15 mg/kg) was 0.000108 s⁻¹, the MRT (in vivo; po, 0.15 mg/kg) was 3.58 h and the Tmax (in vivo; po, 0.15 mg/kg, Mean Tmax after removing the observation) was 0.714 ± 0.559 h. For the same compound, the Tmax (in vivo; po, 0.15 mg/kg, Tmax) was 1.15 h, the Tmax (in vivo; po, 0.15 mg/kg, Tmax of one pig) was 4 h and the Tmax (in vivo; po, 0.15 mg/kg, Tmax range) was 0.67 to 2 h. For the same compound, the Tmax (in vivo; po, 0.15 mg/kg, Tmax range of the other pigs) was 0.16 to 1.5 h, the Vmax (CYP3A [8]) was 2155 (73.8) pmol/mg protein/min and 1899 (88.2) pmol/mg protein/min and the Km (CYP3A [8]; [14]) was 11.3 µM. It also gave a Km (CYP3A [12]; hybrid sow × Piétrain boar, Km) of 12.3 µM.

Source: article PMC6492070 (Frontiers in Pharmacology, 2019)
